Columns and labels:
[1] = cited from earlier work
[2] = system: Pseudomonas aeruginosa biofilm; test: Sugar release / solubilization of dehydrated P. aeruginosa biofilm by carbohydrate-active enzymes; details: individual enzymes, dehydrated biofilm in PBS, 37° C., 19 hr / overnight

Row | Molecule | maximal attainable concentration in the CF lung [1] [µg/mL] | digestion (solubilization, hydrolysis) of the Pseudomonas aeruginosa biofilm, sugar release [2]
1 | NC[C@H]1O[C@H](O[C@H]2[C@H](O)[C@@H](O[C@H]3O[C@H](CO)[C@@H](O)[C@H](N)[C@H]3O)[C@H](N)C[C@@H]2N)[C@H](N)C[C@@H]1O [tobramycin] | ~1000 | –
2 | egg yolk lysozyme: egg yolk lysozyme (Sigma L4919) | – | None of these three enzymes showed significant hydrolysis
3 | P043 CelH: Clostridium thermocellum CelH enzyme (gene Cthe_1472) represented by SEQ ID NO:12 (protein, listed as Clostridium thermocellum) IKSFQELQGRKLDIVHQFINWSTDFSWVRPYADAVYNNGSILMITWEPWEYNTVDIKNGKADAYITRMAQDMKAYGKEIWLRPLHEANGDWYPWAIGYSSRVNTNETYIAAFRHIVDIFRANGATNVKWVFNVNCDNVGNGTSYLGHYPGDNYVDYTSIDGYNWGTTQSWGSQWQSFDQVFSRAYQALASINKPIIIAEFASAEIGGNKARWITEAYNSIRTSYNKVIAAVWFHENKETDWRINSSPEALAAYREAIGAGSSNPTPTPTWTSTPPSSSPKAVDPFEMVRKMGMGTNLGNTLEAPYEGSWSKSAMEYYFDDFKAAGYKNVRIPVRWDNHTMRTYPYTIDKAFLDRVEQVVDWSLSRGFVTIINSHHDDWIKEDYNGNIERFEKIWEQIAERFKNKSENLLFEIMNEPFGNITDEQIDDMNSRILKIIRKTNPTRIVIIGGGYWNSYNTLVNIKIPDDPYLIGTFHYYDPYEFTHKWRGTWGTQEDMDTVVRVFDFVKSWSDRNNIPVYFGEFAVMAYADRTSRVKWYDFISDAALERGFACSVWDNGVFGSLDNDMAIYNRDTRTFDTEILNALFNPGTYPSYSPKPSPTPRPTKPPVTPAVGEKMLDDFEGVLNWGSYSGEGAKVSTKIVSGKTGNGMEVSYTGTTDGYWGTVYSLPDGDWSKWLKISFDIKSVDGSANEIRFMIAEKSINGVGDGEHWVYSITPDSSWKTIEIPFSSFRRRLDYQPPGQDMSGTLDLDNIDSIHFMYANNKSGKFVVDNIKLIGATSDPTPSIKHGDLNFDNAVNSTDLLMLKRYILKSLELGTSEQEEKFKKAADLNRDNKVDSTDLTILKRYLLKAISEIPI | – | positive results
